What was measured:
[1] = molecular target: T1, ROCK1 (Homo sapiens, UniProt Q13464); test: anti-V5 co-immunoprecipitation of SHROOM3-ROCK1 from treated WT-Sh3 HEK-293T cells; type: cell-based; parameters: with SHROOM3
Target sequence in this assay (Q13464 2-1354): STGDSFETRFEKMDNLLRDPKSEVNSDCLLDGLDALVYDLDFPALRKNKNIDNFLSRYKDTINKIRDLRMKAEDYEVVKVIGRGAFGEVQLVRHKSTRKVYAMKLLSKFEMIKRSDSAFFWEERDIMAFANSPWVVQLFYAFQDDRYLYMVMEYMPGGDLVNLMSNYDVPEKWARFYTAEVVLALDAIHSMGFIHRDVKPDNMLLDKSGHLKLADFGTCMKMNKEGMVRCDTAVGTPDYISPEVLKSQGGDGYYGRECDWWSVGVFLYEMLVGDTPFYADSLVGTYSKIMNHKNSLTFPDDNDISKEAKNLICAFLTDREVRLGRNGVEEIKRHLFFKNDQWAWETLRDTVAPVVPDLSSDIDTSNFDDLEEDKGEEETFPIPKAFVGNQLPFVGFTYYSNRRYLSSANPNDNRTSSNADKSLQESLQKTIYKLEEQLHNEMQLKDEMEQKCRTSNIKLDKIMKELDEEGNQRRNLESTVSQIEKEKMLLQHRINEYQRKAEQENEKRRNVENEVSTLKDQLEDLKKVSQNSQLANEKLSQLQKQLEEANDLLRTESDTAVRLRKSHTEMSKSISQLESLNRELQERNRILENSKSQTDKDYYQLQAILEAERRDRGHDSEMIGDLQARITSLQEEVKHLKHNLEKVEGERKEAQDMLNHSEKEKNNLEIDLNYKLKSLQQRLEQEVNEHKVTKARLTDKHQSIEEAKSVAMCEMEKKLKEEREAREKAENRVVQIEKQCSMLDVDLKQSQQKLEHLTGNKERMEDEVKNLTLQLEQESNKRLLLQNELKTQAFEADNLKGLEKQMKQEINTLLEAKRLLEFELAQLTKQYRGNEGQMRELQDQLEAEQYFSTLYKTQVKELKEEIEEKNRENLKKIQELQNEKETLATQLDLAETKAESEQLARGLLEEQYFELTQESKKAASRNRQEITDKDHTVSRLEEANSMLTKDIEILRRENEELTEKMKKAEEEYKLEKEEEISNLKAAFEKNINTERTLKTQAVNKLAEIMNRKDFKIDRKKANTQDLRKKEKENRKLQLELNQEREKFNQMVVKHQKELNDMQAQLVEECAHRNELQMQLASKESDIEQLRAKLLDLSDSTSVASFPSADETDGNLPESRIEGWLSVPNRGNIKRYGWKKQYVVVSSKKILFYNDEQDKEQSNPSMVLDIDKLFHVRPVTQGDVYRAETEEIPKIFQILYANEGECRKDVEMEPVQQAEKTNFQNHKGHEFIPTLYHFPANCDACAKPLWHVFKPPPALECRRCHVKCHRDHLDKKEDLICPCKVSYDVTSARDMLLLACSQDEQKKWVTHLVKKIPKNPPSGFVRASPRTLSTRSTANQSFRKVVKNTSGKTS
Target sequence in this assay (Q8TF72 whole entry partner): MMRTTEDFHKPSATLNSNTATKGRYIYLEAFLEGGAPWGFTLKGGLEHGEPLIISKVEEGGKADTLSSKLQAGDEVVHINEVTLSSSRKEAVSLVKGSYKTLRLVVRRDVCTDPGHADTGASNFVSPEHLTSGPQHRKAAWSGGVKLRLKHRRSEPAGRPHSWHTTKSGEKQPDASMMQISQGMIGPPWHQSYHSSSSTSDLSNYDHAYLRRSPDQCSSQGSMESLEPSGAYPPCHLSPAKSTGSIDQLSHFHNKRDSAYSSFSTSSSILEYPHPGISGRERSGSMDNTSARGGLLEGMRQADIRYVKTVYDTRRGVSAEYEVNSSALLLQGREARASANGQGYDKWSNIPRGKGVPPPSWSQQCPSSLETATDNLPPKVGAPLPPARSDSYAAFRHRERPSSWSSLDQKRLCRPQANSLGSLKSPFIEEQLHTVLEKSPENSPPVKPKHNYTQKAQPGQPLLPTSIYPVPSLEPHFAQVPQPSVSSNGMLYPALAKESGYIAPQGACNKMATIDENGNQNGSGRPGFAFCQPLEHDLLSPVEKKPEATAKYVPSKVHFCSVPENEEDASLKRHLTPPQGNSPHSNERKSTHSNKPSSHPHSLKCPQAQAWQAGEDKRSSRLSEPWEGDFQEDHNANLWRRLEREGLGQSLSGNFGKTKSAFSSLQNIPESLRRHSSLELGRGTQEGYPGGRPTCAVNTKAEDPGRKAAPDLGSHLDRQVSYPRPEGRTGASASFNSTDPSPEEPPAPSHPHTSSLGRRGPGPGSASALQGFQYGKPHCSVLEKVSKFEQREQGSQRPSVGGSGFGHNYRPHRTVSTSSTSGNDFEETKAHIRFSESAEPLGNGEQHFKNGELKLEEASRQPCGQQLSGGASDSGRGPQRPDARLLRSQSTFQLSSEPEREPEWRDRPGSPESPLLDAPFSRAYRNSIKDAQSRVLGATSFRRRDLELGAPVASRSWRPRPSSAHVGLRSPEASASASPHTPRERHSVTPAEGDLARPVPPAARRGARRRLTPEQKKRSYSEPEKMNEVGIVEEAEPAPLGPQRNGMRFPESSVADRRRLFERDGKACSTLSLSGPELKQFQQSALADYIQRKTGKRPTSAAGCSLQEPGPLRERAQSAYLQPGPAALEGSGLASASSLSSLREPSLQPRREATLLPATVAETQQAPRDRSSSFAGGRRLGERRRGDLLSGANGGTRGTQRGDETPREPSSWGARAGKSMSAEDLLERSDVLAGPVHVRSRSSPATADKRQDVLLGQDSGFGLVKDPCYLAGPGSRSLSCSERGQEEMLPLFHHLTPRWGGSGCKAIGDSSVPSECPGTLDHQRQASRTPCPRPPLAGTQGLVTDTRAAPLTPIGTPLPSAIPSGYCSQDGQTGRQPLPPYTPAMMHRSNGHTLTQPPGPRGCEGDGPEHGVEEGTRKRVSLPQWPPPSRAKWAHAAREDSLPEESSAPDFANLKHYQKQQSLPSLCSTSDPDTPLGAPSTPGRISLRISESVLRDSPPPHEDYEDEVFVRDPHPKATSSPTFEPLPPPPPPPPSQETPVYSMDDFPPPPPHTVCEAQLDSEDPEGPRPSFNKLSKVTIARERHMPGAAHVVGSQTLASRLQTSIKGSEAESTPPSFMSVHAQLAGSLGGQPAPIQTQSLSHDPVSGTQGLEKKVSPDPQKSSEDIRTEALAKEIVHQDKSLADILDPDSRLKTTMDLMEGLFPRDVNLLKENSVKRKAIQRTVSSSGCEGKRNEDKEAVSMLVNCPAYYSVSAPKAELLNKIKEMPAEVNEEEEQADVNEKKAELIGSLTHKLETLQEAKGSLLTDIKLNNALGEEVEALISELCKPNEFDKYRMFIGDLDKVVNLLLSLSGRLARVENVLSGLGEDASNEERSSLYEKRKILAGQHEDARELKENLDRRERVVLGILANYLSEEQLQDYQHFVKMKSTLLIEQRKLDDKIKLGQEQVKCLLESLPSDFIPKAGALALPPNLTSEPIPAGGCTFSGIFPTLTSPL

[2] = molecular target: T1, ROCK1
Target sequence in this assay (Q13464 2-1354): as the sequence (Q13464 2-1354) above

SMILES | anti-V5 co-immunoprecipitation of SHROOM3-ROCK1 from treated WT-Sh3 HEK-293T cel [1] | kinase hot spot assay in the absence of SHROOM3 (Fig. S7j) [2]
F[B-](F)(F)c1ccc(C2NC(=S)NC3=C2CCc2ccccc23)cc1 (centres unmarked) [D4G, potassium trifluoro (4-(2-thioxo-1,2,3,4,5,6-hexahydrobenzo [h]quinazolin-4-yl)phenyl) borate] | the interaction of SHROOM3 with ROCK1 was diminished with D4G-treatment vs DMSO-treatment in WT-Sh3 overexpressing HEK-293T | –
O=c1[nH]ccc2c(S(=O)(=O)N3CCCNCC3)cccc12 [HF, Hydroxy Fasudil] | – | HF inhibited Rock1, Rock2 (as expected), but showed significant off-target kinase inhibition (except Fyn)

Source: publication PMC12852734, “Design of precision therapeutics for a CKD risk allele by targeting Shroom3-Rock interaction” (Nature Communications, 2025)
